The target in one data set is Mtb HadAB (Mycobacterium tuberculosis, UniProt I6WYY7+P9WFK1). The data set is described as follows: biochemical. The note with it: trans-2-C16:1-CoA 60 μM, mean ± SD of duplicate assays.
The test system of the next data set is Mtb H37Rv. The data set is described as follows: microbe, parasite or virus in culture. Format: cell-based. As to conditions: Mycobacterium tuberculosis.
A further data set relates to Mtb HadBC. The format is biochemical. The note with it: compound 50 μM, HadBC 130 nM, trans-2-C16:1-CoA 25 μM.
In the next data set the test system is Mtb H37Rv mc^26206. The data set is described as follows: microbe, parasite or virus in culture. Format: cell-based. The note with it: Mycobacterium tuberculosis, read-out: MIC Mtb WT.
The test system of data set [1] is mycolic acid biosynthesis in Mtb H37Rv mc^26206. The format is cell-based. The note with it: 3× MIC, 24 h.
Data set [2] deals with HadA, HadB, BCG_0547c (HadD) (Mycobacterium bovis BCG, UniProt I6WYY7+P9WFK1). The data set is described as follows: biochemical. Format: binding. The note with it: for competition from the bead matrices, HadA, HadB and HadD: at 0.49 μM, n = 3.
The target in another data set is BCG_2231 (DlaT, Rv2215) (Mycobacterium bovis, UniProt P65634). As to the kind of experiment: biochemical. The format is binding, Mycobacterium bovis BCG.
The next data set deals with Mtb. The format is cell-based, Mycobacterium tuberculosis.
Another data set deals with HepG2. As to the kind of experiment: HepG2 cytotoxicity. As to conditions: Homo sapiens.
In a further data set the test system is Mtb H37RvMA. The data set is described as follows: microbe, parasite or virus in culture. The format is cell-based. The note with it: Middlebrook 7H9/glycerol/ADC/tween-80.
Data set [3] deals with T1, BCG_0628c (lpqN, Rv0583c) (Mycobacterium tuberculosis, UniProt O53780).
T1 sequence (O53780 20-228): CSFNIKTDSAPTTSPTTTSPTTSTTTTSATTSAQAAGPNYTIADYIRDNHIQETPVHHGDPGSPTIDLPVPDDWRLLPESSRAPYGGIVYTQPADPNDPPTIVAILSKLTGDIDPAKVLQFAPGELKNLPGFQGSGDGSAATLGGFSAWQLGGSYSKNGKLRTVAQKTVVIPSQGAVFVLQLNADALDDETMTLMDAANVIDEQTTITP
The data set is described as follows: biochemical. The format is binding, Mycobacterium bovis BCG.

The mark [4] stands for this setting: HepG2, read-out: HepG2 IC50 (galactose).
Setting [5] is: HepG2, read-out: HepG2 IC50 (glucose).

Each structure is given as a SMILES string. In brackets after ≈: the same amount, converted by molar mass. Several values for one entry are separate records, joined by “and”; a condition that tells them apart may be missing. Equal values may be shown once. Entries after “also recorded” stand apart in the source; their conditions may differ. Read-outs that look alike come from different tables or passages of the source.

Consider `CS(=O)(=O)NC(=O)CCc1cn(-c2ccc(Br)cc2)nc1-c1ccc(Cl)cc1` [Compound 9], for which the IC50 on Mtb HadAB (HadAB 22 nM, read-out: HadAB IC50) stood at 0.03 ± 0.01 µM.
On to `CCc1c(COC(=O)NS(C)(=O)=O)c(-c2ccc(Cl)cc2)nn1-c1ccc(Cl)cc1` [Compound 15], for which the values for the MIC in the data set on Mtb H37Rv (read-out: Mtb MIC) and in the data set on Mtb H37Rv mc^26206 were above 50 µM and 3.9 µM (≈ 1.83 µg/mL), respectively. The IC50 against Mtb HadAB (HadAB IC50, HadAB 22 nM) came to 28 µM. Further, in the data set on Mtb HadBC, the “HadBC % inhibition at 50 μM” value is “No inhibition”.
Regarding `O=c1[nH]nc(CCc2cn(-c3ccc(Br)cc3)nc2-c2ccc(Cl)cc2)o1` [Compound 12], the results for the MIC in the data set on Mtb H37Rv (read-out: Mtb MIC) and in the data set with Mtb H37Rv mc^26206 were 19 µM (≈ 8.47 µg/mL) and 3.12 µM (≈ 1.39 µg/mL), respectively. On Mtb HadAB (HadAB IC50, HadAB 22 nM), the IC50 was 4.24 µM and 4.2 µM.
As for `CS(=O)(=O)c1nnc(Cc2cn(-c3ccc(Cl)cc3)nc2-c2ccncc2)o1` [Compound 13], the MIC in the data set on Mtb H37Rv (read-out: Mtb MIC) was 62.5 µM (≈ 26 µg/mL); in the data set on Mtb H37Rv mc^26206, 3.75 µM (≈ 1.56 µg/mL). Also, the IC50 against Mtb HadAB (HadAB IC50, HadAB 22 nM) was found to be 102 ± 17 µM. The “HadBC % inhibition at 50 μM” value in the data set with Mtb HadBC is given as 37±5%. The “inhibition of biosynthesis of mycolic acids” value in data set [1] is 0–49%.
With `CS(=O)(=O)NC(=O)CCc1cn(-c2ccc(Cl)cc2)nc1-c1ccc(Cl)cc1` [Compound 2], the MIC in the data set with Mtb H37Rv (read-out: Mtb MIC) is 4.7 µM (≈ 2.06 µg/mL); in the data set with Mtb H37Rv (read-out: Mtb MIC (Middlebrook 7H9/DPCC/casitone/Tx)), 0.8 µM (≈ 0.351 µg/mL); with Mtb H37Rv (read-out: Mtb MIC (Middlebrook 7H9/DPPC/cholesterol/BSA/Tx)), 4.7 µM (≈ 2.06 µg/mL); with Mtb H37Rv (read-out: Mtb MIC (Middlebrook 7H9/casitone/Tx)), 0.6 µM (≈ 0.263 µg/mL); in the data set with Mtb H37Rv (read-out: Mtb MIC (Middlebrook 7H9/glucose/BSA/Tx)) it was 4.7 µM (≈ 2.06 µg/mL); in the data set with Mtb H37Rv mc^26206, below 0.625 µM. The IC50 in [2] was below 0.49 µM; against Mtb HadAB (HadAB IC50, HadAB 22 nM), 0.13 ± 0.02 µM; in the data set on HepG2 (setting [4]) it was above 50 µM; with HepG2 (setting [5]) it was above 50 µM. Moreover, the “competition from the bead matrices, HadA, HadB and HadD” value in data set [2] is recorded as 56–62%. The affinity at BCG_2231 (DlaT, Rv2215), expressed as Kd, was 6.6 µM. Besides, the “HadBC % inhibition at 50 μM” value in the data set on Mtb HadBC is reported as “did not inhibit; also recorded: No inhibition”. Further, the “Mtb pMIC99” value with Mtb amounted to 5.5. The solubility in the data set “physchem” turned out to be 100 µM (≈ 43.8 µg/mL).
With `CS(=O)(=O)NC(=O)NCc1cn(-c2ccc(C(F)(F)F)nc2)nc1-c1ccncc1` [Compound 11], on Mtb HadAB (HadAB IC50, HadAB 22 nM), the IC50 was 0.062 µM and 0.06 µM. Also, the MIC with Mtb H37Rv mc^26206 is 0.625 µM (≈ 0.275 µg/mL).
As to `CS(=O)(=O)NC(=O)CCc1cn(-c2ccc(Br)cc2)nc1-c1ccncc1` [Compound 1], the “Compound 1 MIC, H37RvMA (WT reference strain)” value in the data set with Mtb H37RvMA is given as 1.9 µM. Moreover, the MIC with Mtb H37RvMA (Mycobacterium tuberculosis, H37RVMA, read-out: Compound 1 MIC, H37RvMA (WT reference strain)) was 1.9 µM (≈ 0.854 µg/mL). Also, the IC50 in data set [2] is below 0.16 µM; against Mtb HadAB (HadAB IC50, HadAB 22 nM), 0.1 ± 0.01 µM; with HepG2 (setting [4]), above 50 µM; in the data set on HepG2 (setting [5]), above 50 µM. In data set [2], the “competition from the bead matrices, HadA, HadB and HadD” value is recorded as 91–92%. In addition, the Kd on BCG_2231 (DlaT, Rv2215) was 1 µM; in data set [3] it was 1.8 µM. Also, the “Mtb pMIC99” value with Mtb is given as 6.2. The compound further displayed a solubility in the data set “physchem” of 190 µM (≈ 85.4 µg/mL).
`O=C(O)CCc1cn(-c2ccc(Br)cc2)nc1-c1ccc(Cl)cc1` [Compound 10]: the MIC in the data set on Mtb H37Rv (read-out: Mtb MIC) is above 50 µM; in the data set with Mtb H37Rv mc^26206, 1.5 µM (≈ 0.609 µg/mL). Besides, at Mtb HadAB (HadAB IC50, HadAB 22 nM), the IC50 was found to be 3.3 ± 1.7 µM. Besides, in the data set on Mtb HadBC, the “HadBC % inhibition at 50 μM” value is “No inhibition”.
Turning to `CS(=O)(=O)NC(=O)NCc1cc(-c2ccc(Br)cc2)oc1-c1ccncc1` [Compound 14], half-maximal inhibition against Mtb HadAB (HadAB IC50, HadAB 22 nM) (IC50) was put at 0.02 ± 0.01 µM. Also, the MIC with Mtb H37Rv mc^26206 is below 0.243 µM.
With `CS(=O)(=O)NC(=O)CCc1cn(-c2ccc(Cl)cc2)nc1-c1ccc(C#CCN)cc1` [Compound 4], in the data set on Mtb, the “Mtb pMIC99” value is 5.4.
